Laboratory results: ChEMBL document CHEMBL1201862, “PubChem BioAssay data set” (2004)
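Results reflect a 48-hour exposure of cells in 96-well plates to compound at five concentrations. Here, GI50 denotes the concentration required for 50% inhibition of growth.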 Active and inactive are the calls of the source. No stated cut-off is given here; in the data, active = GI50 up to about 1.1 µM and inactive = higher.

What was measured:
Assay in all cases: NCI-60 cell line screen, 48 h
NCI-H460 = system: NCI-H460
IGROV-1 = system: IGROV-1
KM12 = system: KM12
OVCAR-3 = system: OVCAR-3
NCI-H23 = system: NCI-H23
ACHN = system: ACHN
SW-620 = system: SW-620
OVCAR-8 = system: OVCAR-8
M14 = system: M14
786-0 = system: 786-0
HCT-116 = system: HCT-116
NCI-H522 = system: NCI-H522
UO-31 = system: UO-31
SK-MEL-28 = system: SK-MEL-28
COLO 205 = system: COLO 205
HOP-92 = system: HOP-92
RXF 393 = system: RXF 393

Row | SMILES | GI50 (NCI-H460) | GI50 (IGROV-1) | GI50 (KM12) | GI50 (OVCAR-3) | GI50 (NCI-H23) | GI50 (ACHN) | GI50 (SW-620) | GI50 (OVCAR-8) | GI50 (M14) | GI50 (786-0) | GI50 (HCT-116) | GI50 (NCI-H522) | GI50 (UO-31) | GI50 (SK-MEL-28) | GI50 (COLO 205) | GI50 (HOP-92) | GI50 (RXF 393)
1 | O=C(/C=C/c1ccccc1Cl)c1ccccc1Cl | 19.2 µM (inactive) | 17.3 µM (inactive) | 15.5 µM (inactive) | 18.9 µM (inactive) | 21.2 µM (inactive) | 17.3 µM (inactive) | 12.6 µM (inactive) | 17.3 µM (inactive) | 22.3 µM (inactive) | 15.2 µM (inactive) | 14.6 µM (inactive) | 19 µM (inactive) | 15.9 µM (inactive) | 19.1 µM (inactive) | 21.4 µM (inactive) | 17.1 µM (inactive) | –
2 | COC(=O)C1Cc2c([nH]c3ccccc23)C(c2ccccc2O)N1 (centres undefined) | 18.5 µM (inactive) | 33.8 µM (inactive) | 60.3 µM (inactive) | 49.7 µM (inactive) | 52 µM (inactive) | 58.1 µM (inactive) | > 100 µM (inactive) | 68.1 µM (inactive) | 93.8 µM (inactive) | 69.8 µM (inactive) | 66.8 µM (inactive) | 32.4 µM (inactive) | 43.1 µM (inactive) | > 100 µM (inactive) | 35.3 µM (inactive) | > 100 µM (inactive) | –
3 | CCC(=O)OC[n+]1ccc2c(C)c3[nH]c4ccccc4c3c(C)c2c1 | 0.033 µM (active) | 0.142 µM (active) | 0.483 µM (active) | 1.33 µM (inactive) | 0.675 µM (active) | 0.289 µM (active) | 0.173 µM (active) | 0.454 µM (active) | 1.08 µM (active) | 0.767 µM (active) | 0.115 µM (active) | – | – | 1.38 µM (inactive) | 0.323 µM (active) | 0.107 µM (active) | 0.552 µM (active)
4 | O=C(/C=C1\Nc2ccccc2C(=O)N1c1ccc(Cl)cc1)c1ccncc1 | > 100 µM (inactive) | – | > 100 µM (inactive) | > 100 µM (inactive) | > 100 µM (inactive) | > 100 µM (inactive) | > 100 µM (inactive) | > 100 µM (inactive) | > 100 µM (inactive) | 71.6 µM (inactive) | > 100 µM (inactive) | > 100 µM (inactive) | > 100 µM (inactive) | > 100 µM (inactive) | > 100 µM (inactive) | > 100 µM (inactive) | –
5 | O=C1C2C=CC(C2)C(c2ccc(O)cc2)N1O (centres undefined) | > 100 µM (inactive) | > 100 µM (inactive) | > 100 µM (inactive) | > 100 µM (inactive) | > 100 µM (inactive) | > 100 µM (inactive) | > 100 µM (inactive) | > 100 µM (inactive) | > 100 µM (inactive) | > 100 µM (inactive) | > 100 µM (inactive) | > 100 µM (inactive) | > 100 µM (inactive) | > 100 µM (inactive) | > 100 µM (inactive) | > 100 µM (inactive) | –
6 | COC(=O)[C@@]12C3=NO[C@]1(C(=O)OC)C(O[Si](C)(C)C(C)(C)C)[C@H]1OC(C)(C)O[C@H]1[C@@H]2C(OCc1ccccc1)CC3 (some centres undefined) | 6.21 µM (inactive) | 42.7 µM (inactive) | 28.3 µM (inactive) | 46.5 µM (inactive) | 80.4 µM (inactive) | 13.2 µM (inactive) | > 100 µM (inactive) | 92.5 µM (inactive) | 26.9 µM (inactive) | 70.5 µM (inactive) | 41.8 µM (inactive) | – | 41.3 µM (inactive) | > 100 µM (inactive) | 57.1 µM (inactive) | 2.75 µM (inactive) | –
7 | Cn1cnc([N+](=O)[O-])c1Sc1nc2ccccc2s1 | 12 µM (inactive) | 11.9 µM (inactive) | 15.1 µM (inactive) | 3.7 µM (inactive) | 10.9 µM (inactive) | 15 µM (inactive) | 4 µM (inactive) | 4.07 µM (inactive) | 15.2 µM (inactive) | 11.8 µM (inactive) | 5.47 µM (inactive) | – | 9.57 µM (inactive) | 9.1 µM (inactive) | 3.33 µM (inactive) | 2.77 µM (inactive) | 2.15 µM (inactive)
